Values after ≈ are worked out from the molar mass of the structure shown.
Experiments:
Escherichia coli = test: In vitro antibacterial activity, agar dilution MIC (Experiment 1); type: cell-based; details: agar dilution; for MIC50: read-out: MIC50; for MIC90: read-out: MIC90
Description: (§1) Tested strains: all the clinically separated strains below were purchased from public facilities.
(§2) Escherichia coli ATCC25922, Pseudomonas aeruginosa ATCC27853, Klebsiella pneumoniae ATCC700603, and the like.
(§3) Tested Samples: Imipenem, Ceftazidime: Commercial Products, the Following Experiments were Carried Out According to the Content of an Effective Ingredient in Each Commercial Product;
(§4) The compounds of the present invention, their chemical names, and preparation methods are shown in the preparation example of each compound.
(§5) Experiment method: Agar dilution method, refer to National Committee for Clinical Laboratory Standards. 2006. Methods for Dilution Antimicrobial Susceptibility Tests for Bacteria That Grow Aerobically; Approved Standard—Seventh Edition M7-A7, Vol 26, No. 2, 2006, to determine the MIC of the compound. MIC represents the minimum inhibitory concentration.

Pseudomonas aeruginosa = test: as above; type: cell-based; details: agar dilution (Table 3); for MIC50: read-out: MIC50; for MIC90: read-out: MIC90
Description: as §1, §2, §3, §4, §5

Klebsiella pneumoniae = test: as above; type: cell-based; details: agar dilution
Description: as §1, §2, §3, §4, §5

[1] = Pharmacokinetics (PK) determination in SD rats (Experiment 4); type: in vivo; details: plasma; for Cl_obs / Vz_obs / t1/2z / λ_z: IV 2 mg/kg; for AUC(0-t) / AUC(0-inf): Sprague-Dawley (SD), rat, iv, 2 mg/kg; for AUC(0-inf): read-out: AUCINF_obs
Description: The compound of the present invention, self-prepared and dissolved in a suitable solvent.
Instrument and equipment: API4000 LC-MS/MS
Chromatographic column: Waters XBridge C18(2.1×50 mm, […])
Rat blood collection: Animals were fixed. The animal's tail was heated with a water bathtub 10 minutes before each time point. About 200 μL of the blood was collected through the caudal vein. After the blood collection, the blood was placed in an anticoagulation tube containing heparin sodium. The blood samples were centrifuged at 8000 rpm for 6 minutes at 4° C. to obtain plasma samples. The plasma must be prepared within 30 minutes after the blood collection. The plasma was stored in a refrigerator at −80° C. before the test.
(1) Test samples were removed from the refrigerator (−80° C.), naturally thawed at room temperature, and then vortexed for 5 minutes;
(2) 20 μL sample was precisely pipetted to a 1.5 mL centrifuge tube;
(3) 200 μL of the internal standard solution was added;
(4) The mixture was vortexed for 5 minutes and centrifuged for 5 minutes (12000 revolutions per minute);
(5) 100 μL of the supernate was precisely pipetted, 100 μL of water was added, the mixture was vortexed for 5 minutes, and the sample was sent to LC-MS/MS for analysis.
The results of the concentrations of the test samples (plasma samples) were output with Analyst 1.6.1 of AB Corporation. The meaning value, the standard deviation, the coefficient of variation, and other parameters (not necessary to calculate the parameter that can be directly output from Analyst 1.6.1) were calculated with Microsoft Excel, and the PK parameter is calculated with Pharsight Phoenix 6.1 software.

[2] = tested on: polymyxin-resistant mcr-1 positive Enterobacteriaceae; test: In vitro antibacterial effect on polymyxin-resistant mcr-1 positive Enterobacteriaceae, agar dilution MIC (Experiment 2); type: cell-based, Escherichia coli; details: for MIC50 / MIC90: Escherichia coli; for MIC50: read-out: MIC50 Value, polymyxin-resistant mcr-1 positive Escherichia coli, agar dilution; for MIC90: read-out: MIC90 Value, polymyxin-resistant mcr-1 positive Escherichia coli, agar dilution; for MIC50 Value / MIC90 Value: polymyxin-resistant mcr-1 positive Escherichia coli, agar dilution
Description: Tested samples: the compounds of the present invention, prepared according to the methods of the preparation examples;
Polymyxin E sulphate, Ampicillin, Cefotaxime, Gentamicin, Ciprofloxacin, Tetracycline, and Bactrim were all commercial products, the following experiments were carried out according to the content of an effective ingredient in each commercial product.
Tested strains: Escherichia coli carrying mcr-1 gene isolated from animals and Escherichia coli ATCC25922, a quality control strain, were provided by South China Agricultural University.
With reference to the agar dilution method in CLSI, the MIC value of the tested drugs to the polymyxin resistant mcr-1 positive Escherichia coli were determined.
Preparation of drug-containing agar plates: a drug solution with the highest concentration was prepared for each compound; the drug solution with the highest concentration was subjected to the double dilution; for each of dilution gradient, 1 mL (20×drug working solution) of the drug solution was added to 19 mL MH agar at 45-50° C.; immediately after addition, the agar and the drug solution were uniformly mixed to give a drug-containing agar plate with final concentrations of […], and the plate was solidified for later use; and in the meanwhile, a growth control group was arranged.
Inoculum preparation and culture: the strains stored at −80° C. were rejuvenated and formulated with broth so that the turbidity reached or exceeded 0.5 #McFarland unit; a 96-well plate was used as the inoculation tank, and the bacterial solution was diluted with sodium chloride injection so that the content of bacteria inoculated on the agar was 10^4 CFU/point. A multi-point inoculation instrument was used to inoculate the bacterial solution to the surface of the labeled drug-containing agar. After the water in the inoculation point was completely absorbed by the agar, the plate was placed upside down in a 37° C. constant-temperature incubator and incubated for 16-20 hours.

Row | Compound | MIC50 (Pseudomonas aeruginosa) [mg/L] | MIC90 (Pseudomonas aeruginosa) [mg/L] | Cl_obs [1] [L/h/kg] | Vz_obs [1] [L/kg] | t1/2z [1] [min] | λ_z [1] [h⁻¹] | AUC(0-t) [1] [µg·h/mL] | AUC(0-inf) [1] [µg·h/mL] | further results
1 | C[C@@H](O)[C@H](NC(=O)c1ccc(C#CC#Cc2ccc(CNCCCN3CCOCC3)o2)cc1)C(=O)NO [Compound 22, N-((2S,3R)-3-hydroxy-1-(hydroxyamino)-1-oxobutan-2-yl)-4-((5-((3-morpholinopropylamino)methyl)furan-2-yl)buta-1,3-diynyl)benzamide] | 4 (≈ 7.87 µM) | > 16 | – | – | – | – | – | – | MIC50 (Escherichia coli): 0.5 mg/L (≈ 0.983 µM); MIC90 (Escherichia coli): 2 mg/L (≈ 3.93 µM)
2 | C[C@@H](O)[C@H]1C(=O)N2C(C(=O)O)=C(SCCN=CN)C[C@H]12 [Imipenem, reference compound] | 2 (≈ 6.68 µM) | 16 (≈ 53.4 µM) | – | – | – | – | – | – | MIC50 [2]: 0.125 mg/L (≈ 0.418 µM); MIC90 [2]: 4 mg/L (≈ 13.4 µM)
3 | CN(C)[C@@H]1C(O)=C(C(N)=O)C(=O)[C@@]2(O)C(O)=C3C(=O)c4c(O)cccc4[C@@](C)(O)[C@H]3C[C@@H]12 [Tetracycline] | – | – | – | – | – | – | – | – | MIC50 [2]: 32 mg/L (≈ 72 µM); MIC90 [2]: 64 mg/L (≈ 144 µM)
4 | Gentamicin | – | – | – | – | – | – | – | – | MIC50 Value [2]: 4 mg/L; MIC90 Value [2]: 64 mg/L
5 | Polymyxin E sulphate | – | – | – | – | – | – | – | – | MIC50 Value [2]: 16 mg/L; MIC90 Value [2]: 32 mg/L

The next lines start with results.

Row | MIC50 (Pseudomonas aeruginosa) [mg/L] | MIC90 (Pseudomonas aeruginosa) [mg/L] | Cl_obs [1] [L/h/kg] | Vz_obs [1] [L/kg] | t1/2z [1] [min] | λ_z [1] [h⁻¹] | AUC(0-t) [1] [µg·h/mL] | AUC(0-inf) [1] [µg·h/mL] | Compound | further results
6 | 1 (≈ 2.21 µM) | 8 (≈ 17.7 µM) | 1.80 ± 0.50 | 0.52 ± 0.02 | 12.6 ± 3.6 | 3.47 ± 1.09 | 1.16 ± 0.278 | 1.16 ± 0.277 | C[C@@H](O)[C@H](NC(=O)c1ccc(C#CC#Cc2ccc(CN3CCOCC3)o2)cc1)C(=O)NO [Compound 23, N-((2S,3R)-3-hydroxy-1-(hydroxyamino)-1-oxobutan-2-yl)-4-((5-(morpholinomethyl)furan-2-yl)buta-1,3-diynyl)benzamide] | MIC50 (Escherichia coli): 0.25 mg/L (≈ 0.554 µM); MIC90 (Escherichia coli): 0.25 mg/L (≈ 0.554 µM); MIC50 (Klebsiella pneumoniae; read-out: MIC50): 1 mg/L (≈ 2.21 µM); MIC90 (Klebsiella pneumoniae; read-out: MIC90): 1 mg/L (≈ 2.21 µM)
7 | 1 (≈ 2.17 µM) | – | 4.71 ± 0.33 | 17.6 ± 4.22 | 158 ± 45.6 | 0.28 ± 0.08 | 0.402 ± 0.0216 | 0.426 ± 0.0285 | Cn1nc(CO)cc1-c1ccc(C#Cc2ccc(C(=O)N[C@H](C(=O)NO)C(C)(C)N)cc2)cc1 [Compound 37, (S)—N-(3-amino-1-(hydroxyamino)-3-methyl-1-oxobutan-2-yl)-4-((4-(3-(hydroxymethyl)-1-methyl-1H-pyrazol-5-yl)phenyl)ethynyl)benzamide] | –
8 | 0.5 (≈ 1.03 µM) | 4 (≈ 8.24 µM) | 5.06 ± 0.55 | 2.16 ± 0.30 | 18 ± 0.6 | 2.35 ± 0.07 | 0.396 ± 0.041 | 0.398 ± 0.041 | C[C@@H](O)[C@H](NC(=O)c1ccc(C#CC#Cc2ccc(CNCCOCCO)s2)cc1)C(=O)NO [Compound 42, N-((2S,3R)-3-hydroxy-1-(hydroxyamino)-1-oxobutan-2-yl)-4-((5-((2-(2-hydroxyethoxy)ethylamino)methyl)thienyl-2-yl)buta-1,3-diynyl)benzamide] | –
9 | 1 (≈ 2.14 µM) | 4 (≈ 8.56 µM) | 2.19 ± 0.22 | 0.88 ± 0.07 | 16.8 ± 0.6 | 2.48 ± 0.06 | 0.919 ± 0.1 | 0.921 ± 0.1 | C[C@@H](O)[C@H](NC(=O)c1ccc(C#CC#Cc2ccc(CN3CCOCC3)s2)cc1)C(=O)NO [Compound 43, N-((2S,3R)-3-hydroxy-1-(hydroxyamino)-1-oxobutan-2-yl)-4-((5-(morpholinomethyl)thienyl-2-yl)buta-1,3-diynyl)benzamide] | –
